Data from publication PMC5841303, “In silico screening for human norovirus antivirals reveals a novel non-nucleoside inhibitor of the viral polymerase” (Scientific Reports, 2018).

What was measured:
[1] = target: T1, MNV RdRp (Norovirus, UniProt Q80J95); test: Fluorescent RdRp activity assay, MNV RdRp; format: biochemical, murine norovirus; settings: 0.1–100 µM; read-out: IC50 against MNV RdRp
T1 construct: made in house
Excerpt: The antiviral activity of the four compounds (11, 13, 42a and 54) were examined for inhibition of RNA polymerases from other viruses spanning three genera of the Caliciviridae family, including Norovirus (human norovirus and MNV), Lagovirus (rabbit haemorrhagic disease virus [RHDV]) and Sapovirus (human sapovirus). […] The protein sequence of the examined calicivirus polymerases has an identity range between 30.2–61.4%, and therefore the broad-spectrum activity of these compounds could be attributed to a common, highly-conserved binding pocket across the RdRps, as has been previously reported with broad-spectrum activity of other site-B binding NNIs[16]. Moreover, the ability of each compound to inhibit the different RdRps in a similar range could be further confirmation of targeting a well-conserved binding site of the Caliciviridae family.
Recombinant calicivirus RdRps (GenBank accession numbers) norovirus GII.Pe/GII.4 Sydney 2012 (KT239579), MNV GV CW1 (DQ285629), RHDV Czech V351 (KF594473.1), and SaV GI.1 Mc114 (AY237422) were expressed and purified as described previously[60],[61]. […]
Fluorescent RdRp activity assays were carried out as previously described[14],[62]. Briefly, RdRp activity was quantified by monitoring the formation of double-stranded RNA (dsRNA) from a single stranded homopolymeric template, poly(C) (Sigma Aldrich, St Louis, MO, USA), using the fluorescent dye PicoGreen (Life Technologies, Carlsbad, CA, USA). […] RdRps were incubated for 10 mins at 30 °C in the presence of the test compounds or the compound vehicle DMSO (0.5% vol/vol) before addition into the reaction mixture, which was then allowed to run 15 min at 30 °C then terminated with 10 mM EDTA, followed by PicoGreen staining and dsRNA quantitation. […] In cases where fluorescent enhancement was recorded for a compound instead of inhibition, a secondary gel-based polymerase activity assay was used as a counter-screen as described below, to exclude the possibility of RdRp activity enhancement (Supplementary Fig. S1). […] Antagonism was calculated using Compusyn software V1.0[59]. […]

[2] = test system: MNV; test: MNV plaque reduction assay in cell culture; format: cell-based, murine norovirus
Method: As mentioned above, the only robust cellular assay available for the evaluation of potential norovirus inhibitors is the closely related MNV assay. […] Consequently, 54 was further assessed to determine the IC50 value against MNV RdRp activity using an in vitro fluorescent assay. […] 54 was then assessed for cytotoxicity against RAW264.7 mouse macrophage cells using a cell viability assay. […] Using the plaque reduction assay, the inhibitory effects of 54 (0.5–50 µM) were examined against MNV plaque formation in cell culture. […] Compound solubility and its cell-membrane permeability properties could be further improved with structure-activity relationship enhancement of the 54 scaffold to facilitate cellular uptake, and therefore to increase antiviral efficacy. Work on this aspect is ongoing, and it will be reported in due course.
MNV-1 (CW1) culture assays were performed as previously described. Replication was examined using plaque assays[58],[64],[65]. Cytotoxicity was examined using a CellTitre Blue (Promega, Madison, WI, USA) viability assay as described previously.

[3] = target: human norovirus Sydney 2012 RdRp (Norovirus GII.4 (Norwalk virus, human norovirus), UniProt K4L8Z7); test: Combinational study of 54 and PPNDS (Compusyn combination index); format: biochemical; settings: 54 with PPNDS, 4:1 ratio
Method: Despite the minimal activity in the cell culture system, RdRp inhibition by 54 is an important finding in the search of novel norovirus inhibitors. […] PPNDS (0.025–25 µM) and 54 (0.1–100 µM) were examined alone and together in a 1:4 ratio respectively (Fig. 13A), and the average of the combination indices at 50% (1.6), 75% (1.7) and 90% (1.8) inhibition was 1.7.
Fluorescent RdRp activity assays were carried out as previously described[14],[62]. Briefly, RdRp activity was quantified by monitoring the formation of double-stranded RNA (dsRNA) from a single stranded homopolymeric template, poly(C) (Sigma Aldrich, St Louis, MO, USA), using the fluorescent dye PicoGreen (Life Technologies, Carlsbad, CA, USA). RdRp assays were performed in 384-well plates, and each reaction mixture contained 400 ng enzyme, 45 µM GTP, 10 ng/µL poly(C) RNA, 2.5 mM MnCl2, 5 mM dithiothreitol, (DTT), 0.01% bovine serum albumin (BSA), and 0.005% Tween 20 in 20 mM Tris-HCl, pH 7.5, with a final reaction volume of 25 µL. The previous published norovirus NNI NIC02 was used as a positive control. RdRps were incubated for 10 mins at 30 °C in the presence of the test compounds or the compound vehicle DMSO (0.5% vol/vol) before addition into the reaction mixture, which was then allowed to run 15 min at 30 °C then terminated with 10 mM EDTA, followed by PicoGreen staining and dsRNA quantitation. GraphPad Prism V6.05 (La Jolla, CA, USA) was used to plot the IC50 values. In cases where fluorescent enhancement was recorded for a compound instead of inhibition, a secondary gel-based polymerase activity assay was used as a counter-screen as described below, to exclude the possibility of RdRp activity enhancement (Supplementary Fig. S1). Primed elongation activity was examined in a gel-based assay as previously described[16],[63] using the RNA template (PE44-NoV, Fig. 4D). Gels were imaged using BioRad (Hercules, CA, U.SA) Geldoc Universal Hood II, running BioRad Image Lab software, V4.1, build 16. Antagonism was calculated using Compusyn software V1.0[59]. 54 and PPNDS (4:1 ratio) were tested alone and together against norovirus Sydney 2012 RdRp.

[4] = target: T2, R419A norovirus RdRp (Norovirus GII.4 (Norwalk virus, human norovirus), UniProt K4L8Z7, R1608A); test: Fluorescent RdRp assay, R419A mutant RdRp; format: biochemical; settings: 0.1–100 µM
T2 sequence (K4L8Z7 1190-1699 R1608A): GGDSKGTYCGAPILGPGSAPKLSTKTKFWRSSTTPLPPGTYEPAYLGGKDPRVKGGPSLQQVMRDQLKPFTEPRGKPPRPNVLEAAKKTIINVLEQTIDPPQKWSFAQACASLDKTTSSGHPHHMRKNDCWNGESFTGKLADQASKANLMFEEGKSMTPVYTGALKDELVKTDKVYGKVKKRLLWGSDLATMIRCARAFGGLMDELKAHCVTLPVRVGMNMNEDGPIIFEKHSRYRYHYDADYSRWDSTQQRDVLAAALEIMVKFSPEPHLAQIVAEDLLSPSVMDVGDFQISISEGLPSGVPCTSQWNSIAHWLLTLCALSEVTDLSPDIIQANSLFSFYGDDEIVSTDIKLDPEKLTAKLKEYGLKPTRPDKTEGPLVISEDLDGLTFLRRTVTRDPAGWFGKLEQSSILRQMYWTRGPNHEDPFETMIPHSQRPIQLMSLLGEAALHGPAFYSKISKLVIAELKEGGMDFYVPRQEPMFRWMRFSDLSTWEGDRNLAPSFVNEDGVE
Excerpt: Given the evidence of 54 being a site-B binding NNI, residues Q414 and R419 were mutated to alanine. These residues were previously shown by our research group and others to be critical for human norovirus RdRp site-B binding NNIs, and can create resistance to the drug through their mutagenesis[16],[17],[39]. After the mutant RdRps’ transcriptional activity was confirmed in a fluorescent RdRp assay (Q414A: 54%, R419A: 34% of wild-type activity, respectively), dose-response curves for 54 (0.1–100 µM) were produced to compare the IC50 values between the wild-type RdRp and the two mutant RdRps, Q414A and R419A (Fig. 13B). […]
Fluorescent RdRp activity assays were carried out as previously described[14],[62]. Briefly, RdRp activity was quantified by monitoring the formation of double-stranded RNA (dsRNA) from a single stranded homopolymeric template, poly(C) (Sigma Aldrich, St Louis, MO, USA), using the fluorescent dye PicoGreen (Life Technologies, Carlsbad, CA, USA). […] RdRps were incubated for 10 mins at 30 °C in the presence of the test compounds or the compound vehicle DMSO (0.5% vol/vol) before addition into the reaction mixture, which was then allowed to run 15 min at 30 °C then terminated with 10 mM EDTA, followed by PicoGreen staining and dsRNA quantitation. […] Antagonism was calculated using Compusyn software V1.0[59]. […]

O=C1NN(c2ccccc2)C(=O)/C1=C/c1ccc(-c2ccc(S(=O)(=O)Nc3ccccc3)cc2)o1 [Compound 54] was tested, and the IC50 [1] was 12.1 µM, the “cytotoxicity seen in plaque assay” value ([2]; 50 µM, RAW264.7 cells) was “RAW264.7 cells thinning” and the EC50 ([2]; 0.5–50 µM, read-out: EC50 against MNV in cell culture (plaque reduction)) was greater than 50 µM. The “effect on plaque numbers” value ([2]; up to 25 µM) was “no appreciable effect”, the “combination index at 50% inhibition” value [3] was 1.6 and the “combination index at 75% inhibition” value [3] was 1.7. The “combination index at 90% inhibition” value [3] was 1.8, the average combination index ([3]; average over 50%, 75% and 90% inhibition) was 1.7 and the IC50 [4] was 10.2 µM.
